In patent US20250073255A1, “USE OF FA-TYPE LIPID COMPOUNDS IN PREPARATION OF NUCLEIC ACID DELIVERY REAGENT AND RELATED PRODUCT” (BEIJING BAISHIKANG PHARMACEUTICAL TECHNOLOGY (BSJPHARMA) …, priority 2021, published 2025):

Test system: C57BL/6 male mice
Test: In vivo delivery study of lipid nucleic acid mixture (oral gavage, RT-qPCR of PGY-sRNA-26 in tissues)
Set-up: species or system mouse
Conditions: for oral delivery of single-stranded sRNA nucleic acids into mouse blood / oral delivery of single-stranded sRNA nucleic acids into mouse brain tissue / oral delivery of single-stranded sRNA nucleic acids into mouse femur / oral delivery of single-stranded sRNA nucleic acids into mouse heart tissue / oral delivery of single-stranded sRNA nucleic acids into mouse intestinal tissue / oral delivery of single-stranded sRNA nucleic acids into mouse kidney tissue / oral delivery of single-stranded sRNA nucleic acids into mouse liver tissue / oral delivery of single-stranded sRNA nucleic acids into mouse lung tissue / oral delivery of single-stranded sRNA nucleic acids into mouse pancreatic tissue / oral delivery of single-stranded sRNA nucleic acids into mouse spleen tissue / oral delivery of single-stranded sRNA nucleic acids into mouse stomach tissue: 100 μg lipid:10 nmol PGY-sRNA-26, sampled after 12 hours; for oral delivery of single-stranded sRNA nucleic acids into mouse heart tissue: vs free uptake group; for oral delivery of single-stranded sRNA nucleic acids into mouse intestinal tissue: intestine; for oral delivery of single-stranded sRNA nucleic acids into mouse pancreatic tissue: pancreas; for overall delivery efficacy: delivering nucleic acids into each tissue and blood tested: 100 μg lipid:10 nmol PGY-sRNA-26, all tissues and blood tested
Protocol: 10 nmol of small RNA (as shown in Table 2) was dissolved in 400 μl of DEPC-treated water in a glass tube, 10 μl of the corresponding lipid stock solution was added such that the lipid mass in the system was 100 μg. The mixture was mixed thoroughly, heated in a 90° C. water bath for 15 minutes, and then cooled naturally to obtain the lipid nucleic acid mixture of lipid and small RNA.
C57BL/6 male mice, approximately 6 weeks old, weighing […], were obtained from Beijing Vital River Laboratory Animal Technology Co., Ltd. The mice were housed in the SPF-grade animal facility at the Animal Center of the Institute of Basic Medical Sciences, Chinese Academy of Medical Sciences. The mice were fasted for 12 hours before gavage administration.
The lipid nucleic acid mixture was prepared following the method described in Example 2. The resultant lipid nucleic acid mixture was orally administered to each mouse at a dose of 100 μg lipid:10 nmol single-stranded 3-methylated small RNA PGY-sRNA-26.
• 1) Blank group (n=4): mice were administered with 500 μl saline by gavage, this group served as a blank control; • 2) Free uptake group (n=4): mice were directly administered with small RNA PGY-sRNA-26 solution (10 nmol/mouse, 500 l) by gavage, this group served as a negative control; • 3) Lipid-treated group (n=4): mice were administered with 500 μl lipid nucleic acid mixture prepared in step 2 by gavage.
After 12 hours of gavage administration, 500 μl blood from the eyeball of each mouse was sampled, added to 1.5 ml Trizol Reagent LS (purchased from Invitrogen), thoroughly mixed for lysis. 3 ml of Trizol Reagent LSwas added to tissue samples and homogenized for complete lysis, wherein the sampled tissues include heart, liver, spleen, lung, kidney, stomach, intestine, brain, blood, femur, pancreas. RNAwas extracted from 1 ml of the blood or the tissue lysate following the steps below: • Centrifuge at 4° C., 12,000 rpm for 5 min, discard the precipitate, transfer Trizol to a new centrifuge tube; • Add chloroform at 200 μL chloroform/mL Trizol, shake well, stand at room temperature for 5 min; • Centrifuge at 4° C., 12,000 rpm for 15 min; • Take the upper aqueous phase to another centrifuge tube, add isopropanol at 0.4 mL isopropanol/mL Trizol, mix well, and stand at low temperature for 10-20 min; • Centrifuge at 4° C., 12,000 rpm for 15 min, discard the supernatant, RNA precipitated at the bottom of the tube; • Add 1 mL of 75% ethanol, gently shake the centrifuge tube, suspend the precipitate; • Centrifuge at 4° C., 12,000 rpm for 15 min, discard the supernatant, add 1 mL of 75% ethanol, gently shake the centrifuge tube, suspend the precipitate; • Centrifuge at 4° C., 12,000 rpm for 15 min, discard the supernatant, air-dry at room temperature, dissolve RNA samples in 50 μL RNase-free H2O, measure OD value to quantify RNA concentration. 3.3 Reverse Transcription of sRNA to cDNA:
sRNA was reverse transcribed to cDNA using the High-Capacity cDNA Reverse Transcription Kit (Applied Biosystems, cat. no. 4368813) by stem-loop method (see, e.g., “Real-time quantification of microRNAs by stem-loop RT-PCR, Nucleic Acids Res. 2005 Nov. 27; 33(20):e179”, incorporated herein by reference). The reverse transcription system is as follows: Template RNA (200 ng/μL) 10 μL, 10×RT Buffer 2.0 μL, 25×dNTP Mix (100 mM) 0.8 μL, U6 RT stem-loop primer (10 μM) 2.0 μL, PGY-sRNA-26 RT stem-loop primer (10 μM) 2.0 μL, MultiScribe™ Reverse Transcriptase (50 U/μL) 1.0 μL, RNAse Inhibitor (40 U/μL) 1.0 μL, nuclease-free H2O 1.2 μL. After transient centrifugation, the reverse transcription system was placed in a PCR machine with the following reaction conditions: (1) 25° C., 10 min; (2) 37° C., 120 min; (3) 85° C., 5 min; (4) 4° C., stop reaction. After the reaction, add 20 μL RNAse-free ddH2O, adjust the final volume to 40 μL. […]

Compound	oral delivery of single-stranded sRNA nucleic acids into mouse blood	oral delivery of single-stranded sRNA nucleic acids into mouse brain tissue	oral delivery of single-stranded sRNA nucleic acids into mouse femur	oral delivery of single-stranded sRNA nucleic acids into mouse heart tissue	oral delivery of single-stranded sRNA nucleic acids into mouse intestinal tissue	oral delivery of single-stranded sRNA nucleic acids into mouse kidney tissue	oral delivery of single-stranded sRNA nucleic acids into mouse liver tissue	oral delivery of single-stranded sRNA nucleic acids into mouse lung tissue	oral delivery of single-stranded sRNA nucleic acids into mouse pancreatic tissue	oral delivery of single-stranded sRNA nucleic acids into mouse spleen tissue	oral delivery of single-stranded sRNA nucleic acids into mouse stomach tissue	overall delivery efficacy: delivering nucleic acids into each tissue and blood tested
CCCCCC/C=C\CCCCCCCC(=O)OC(CC)C(C)CCC (stereo not shown) [Lipid 827, 4-methylheptan-3-yl (Z)-hexadec-9-enoate]	can effectively orally deliver	can effectively orally deliver	can effectively orally deliver	can effectively orally deliver	can effectively orally deliver	can effectively orally deliver	can effectively orally deliver	can effectively orally deliver	can effectively orally deliver	can effectively orally deliver	can effectively orally deliver	
CCCCC/C=C\C/C=C\C/C=C\C/C=C\C/C=C\CCC(=O)O [Lipid 542, (4Z,7Z,10Z,13Z,16Z)-docosa-4,7,10,13,16-pentaenoic acid]	can effectively orally deliver	can effectively orally deliver	can effectively orally deliver	can effectively orally deliver	can effectively orally deliver	can effectively orally deliver	can effectively orally deliver	can effectively orally deliver		can effectively orally deliver	can effectively orally deliver	best delivery efficacy
CCCCC/C=C\C/C=C\CCCCCCCC(=O)OCCCCCCCCCCCCCC [Lipid 811, tetradecyl (9Z,12Z)-octadeca-9,12-dienoate]	can effectively orally deliver	can effectively orally deliver	can effectively orally deliver	can effectively orally deliver	can effectively orally deliver	can effectively orally deliver	can effectively orally deliver	can effectively orally deliver	can effectively orally deliver	can effectively orally deliver	can effectively orally deliver	
CCCCCCCCCC(=O)OC/C=C(\C)CC/C=C(\C)CCC=C(C)C [Lipid 803, [(2E,6E)-3,7,11-trimethyldodeca-2,6,10-trienyl]decanoate]	can effectively orally deliver	can effectively orally deliver	can effectively orally deliver	can effectively orally deliver	can effectively orally deliver	can effectively orally deliver	can effectively orally deliver	can effectively orally deliver	can effectively orally deliver	can effectively orally deliver	can effectively orally deliver	best delivery efficacy
CCCCCCCCCC(N)=O [Lipid 573, Decanamide]	can effectively orally deliver	can effectively orally deliver	can effectively orally deliver	can effectively orally deliver	can effectively orally deliver		can effectively orally deliver			can effectively orally deliver	can effectively orally deliver	
O=C(O)CC(=O)C(=O)O [Lipid 623, 2-oxobutanedioic acid]	can effectively orally deliver	can effectively orally deliver	can effectively orally deliver	can effectively orally deliver	can effectively orally deliver	can effectively orally deliver	can effectively orally deliver			can effectively orally deliver	can effectively orally deliver	
CC/C=C/CCO [Lipid 526]	can effectively orally deliver	can effectively orally deliver	can effectively orally deliver	can effectively orally deliver	can effectively orally deliver	can effectively orally deliver	can effectively orally deliver	can effectively orally deliver		can effectively orally deliver	can effectively orally deliver	best delivery efficacy
